The text below walks through data of US9046782B2, “Resist composition for negative tone development and pattern forming method using the same” (FUJIFILM Corporation, priority 2007, dated 2015).

The data set in a line: Vapor pressure of solvents for negative tone development and rinsing. The conditions noted are these: value at 20° C.

In the case of `CCCCCCCCCCCC` [Dodecane], the “Vapor Pressure” value is 0.04 kPa.
With `CCCOCCC` [Dipropyl ether], the “Vapor Pressure” value is 8.33 kPa.
Consider `CC(=O)CC(C)C` [Methyl isobutyl ketone], for which the “Vapor Pressure” value was 2.1 kPa.
The result for `CCCCC(C)=O` [2-Hexanone] reads 0.36 kPa; that for `CCCCOC(C)=O` [Butyl acetate], 1.2 kPa.
As for `CCCCCCO` [1-Hexanol], the figure is 0.13 kPa; as for `CC(=O)OCCC(C)C` [Isoamyl acetate], 0.53 kPa; as for `CCC(C)=O` [Methyl ethyl ketone], 10.5 kPa.
As for `CCCCCC(C)O` (stereo not drawn) [2-Heptanol], the figure is 0.133 kPa.
Turning to `CC(C)CCO` [3-Methyl-1-butanol], the “Vapor Pressure” value was 0.4 kPa.
As for `CCCCCCCCCC` [Decane], the figure is 0.17 kPa.
For `CCCCCCCO` [1-Heptanol], the “Vapor Pressure” value stood at 0.015 kPa.
